Measurements: patent publication US20050043378A1, “LTA4H modulators” (priority 2003, published 2005)
Structures can show the parent of a compound that is named as a salt. Where two headings read alike, the source gives them in different places.

Experiments:
[1] = molecular target: T1, recombinant human LTA4 hydrolase (rhLTA4H) (Homo sapiens, UniProt P09960); assay: Recombinant human LTA4 hydrolase assay for LTA4 hydrolase inhibitor activity; assay type: biochemical; conditions: LTA4 substrate, LTB4 by immunoassay, average of one to three determinations;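 further: enzyme expressed in Sf-9 insect cells, compound preincubated 10 min with enzyme, 10 min reaction at room temperature, uninhibited reaction as positive control, enzyme-free blank as negative control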
T1 construct: made in house; host or cells: Spodoptera frugiperda (Sf-9) cells, baculovirus (pFastBac1)
T1 sequence (P09960 1-611): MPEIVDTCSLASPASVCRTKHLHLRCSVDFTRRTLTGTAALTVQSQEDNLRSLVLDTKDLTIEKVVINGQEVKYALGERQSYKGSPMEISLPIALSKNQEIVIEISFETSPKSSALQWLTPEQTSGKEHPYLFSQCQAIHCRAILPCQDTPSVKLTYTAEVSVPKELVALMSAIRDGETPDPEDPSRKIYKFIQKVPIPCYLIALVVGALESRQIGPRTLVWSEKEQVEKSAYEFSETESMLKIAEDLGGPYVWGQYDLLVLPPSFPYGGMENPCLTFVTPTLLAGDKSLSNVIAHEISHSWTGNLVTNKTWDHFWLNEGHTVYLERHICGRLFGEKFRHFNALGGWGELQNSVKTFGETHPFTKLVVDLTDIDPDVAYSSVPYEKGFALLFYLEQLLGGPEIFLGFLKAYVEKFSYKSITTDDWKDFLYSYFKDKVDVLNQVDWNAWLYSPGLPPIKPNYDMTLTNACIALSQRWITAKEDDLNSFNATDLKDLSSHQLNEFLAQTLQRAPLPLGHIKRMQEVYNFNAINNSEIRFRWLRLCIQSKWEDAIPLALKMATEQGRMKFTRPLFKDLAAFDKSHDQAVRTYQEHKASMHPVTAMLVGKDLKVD

[2] = system: LTB4 production by calcium ionophore-stimulated murine blood; assay: LTB4 production by calcium ionophore-stimulated murine blood for LTA4H inhibitor activity; assay type: cell-based, CD-1 mice
[3] = system: ex vivo stimulated LTB4 production in blood; assay: Murine arachidonic acid-induced inflammation model: ex vivo stimulated LTB4 production; design: species or system female Balb/c mice; conditions: Mus musculus, read-out: % Inh. LTB4
[4] = system: neutrophil influx (myeloperoxidase, MPO); assay: Murine arachidonic acid-induced inflammation model: neutrophil influx (myeloperoxidase activity in ear biopsies); assay type: in vivo, female Balb/c mice; conditions: Mus musculus, read-out: % Inh. MPO
[5] = system: ionophore-induced LTB4 production in mouse blood; conditions: oral administration; cited from earlier work
[6] = system: ionophore-induced LTB4 production in rat peritoneum; conditions: oral administration; cited from earlier work
colitis symptoms = conditions: eight weeks of treatment, cotton top tamarins; cited from earlier work
[7] = 30 mg/kg oral gavage 60 min before topical arachidonic acid to ear, ear biopsies after 3 h, vs animals without inhibitor
[8] = diluted CD-1 mouse whole blood, A23187 stimulation, LTB4 by immunoassay, read-out: IC50
[9] = 30 mg/kg oral gavage, blood taken 3 h after arachidonic acid, ex vivo A23187 stimulation, vs animals without inhibitor

Structure (SMILES) | IC50 [1] [nM] | IC50 ([2]; Mus musculus) [nM] | inhibition at 30 mg/kg ([3]; po, 3 h) [%] | inhibition in vivo at 30 mg/kg ([4]; po, 3 h) [%] | inhibition in vivo at 30 mg/kg [4, 7] [%] | IC50 [2, 8] [nM] | inhibition at 30 mg/kg [3, 9] [%] | inhibition of ionophore-induced LTB4 production in mouse blood ex vivo [5] | inhibition of ionophore-induced LTB4 production in rat peritoneum in vivo [6] | colitis symptoms (colitis symptoms)
O=C(O)C1CCN(CCOc2ccc(Oc3nc4ccccc4s3)cc2)CC1 [Example 18, 1-{2-[4-(Benzothiazol-2-yloxy)-phenoxy]-ethyl}-piperidine-4-carboxylic acid potassium salt] | 6 | 162 | 78 | 83 |  |  |  |  |  | 
OC1(c2ccccc2)CCN(CCCOc2ccc(Oc3nc4ccccc4o3)cc2)CC1 [Example 27, 1-{3-[4-(Benzooxazol-2-yloxy)-phenoxy]-propyl}-4-phenyl-piperidin-4-ol] | 7 | 143 | 50 |  | 72 |  |  |  |  | 
O=C(O)C1CCN(CCc2ccc(Oc3nc4ccccc4s3)cc2)CC1 [Example 150, 1-{2-[4-(Benzothiazol-2-yloxy)-phenyl]-ethyl}-piperidine-4-carboxylic acid] | 1 |  |  |  | 91 | 52 | 81 |  |  | 
O=C(O)C1CCCN(CCc2ccc(Oc3nc4ccccc4s3)cc2)C1 (centres unmarked) [Example 155, 1-{2-[4-(Benzothiazol-2-yloxy)-phenyl]-ethyl}-piperidine-3-carboxylic acid] | 9 |  |  |  | 93 | 127 | 96 |  |  | 
O=C(O)CCN(CCc1ccc(Oc2nc3ccccc3s2)cc1)CC1CC1 [Example 180, 3-({2-[4-(Benzothiazol-2-yloxy)-phenyl]-ethyl}-cyclopropylmethyl-amino)-propionic acid] | 2 |  |  |  | 87 | 15 | 87 |  |  | 
c1ccc2sc(Oc3ccc(OCCn4nnnc4C4CCNCC4)cc3)nc2c1 [Example 206, 2-{4-[2-(5-Piperidin-4-yl-tetrazol-1-yl)-ethoxy]-phenoxy}-benzothiazole] | 4 |  |  |  | 76 | 43 | 67 |  |  | 
OCC1CCCCN1CCOc1ccc(Oc2nc3ccccc3s2)cc1 (centres unmarked) [Example 263, (1-{2-[4-(Benzothiazol-2-yloxy)-phenoxy]-ethyl}-piperidin-2-yl)-methanol] | 5 |  |  |  | 19 | 49 | 0 |  |  | 
O=C1C[C@H](O)CN1C1CCN(CCc2ccc(Oc3nc4ccccc4s3)cc2)CC1 [Example 336, (S)-1-(1-{2-[4-(Benzothiazol-2-yloxy)-phenyl]-ethyl}-piperidin-4-yl)-4-hydroxy-pyrrolidin-2-one] | 24 |  |  |  | 0 | 153 | 67 |  |  | 
OCC1CCN(Cc2ccc(Oc3nc4ccccc4s3)cc2)CC1 [Example 360, {1-[4-(Benzothiazol-2-yloxy)-benzyl]-piperidin-4-yl}-methanol] | 33 |  |  |  | 88 | 246 | 87 |  |  | 
O=C1C[C@@H](O)CN1C1CCN(Cc2ccc(Oc3nc4ccccc4s3)cc2)CC1 [Example 446, 1-{1-[4-(Benzothiazol-2-yloxy)-benzyl]-piperidin-4-yl}-4-hydroxy-pyrrolidin-2-one] | 8 |  |  |  | 43 | 131 | 64 |  |  | 
O=C1C[C@H](O)CN1C1CCN(Cc2ccc(Oc3nc4ccccc4s3)cc2)CC1 [Example 447, 1-{1-[4-(Benzothiazol-2-yloxy)-benzyl]-piperidin-4-yl}-4-hydroxy-pyrrolidin-2-one] | 28 |  |  |  | 48 | 240 | 90 |  |  | 
CN(CCCOc1ccc(Cc2ccccc2)cc1)CCC(=O)O.Cl [SC57461] |  |  |  |  |  |  |  | caused inhibition of ionophore-induced LTB4 production | caused inhibition of ionophore-induced LTB4 production | significantly improved colitis symptoms
